Assay results taken from patent publication US6083967A, “S-oxide and S,S-dioxide tetrahydrothiopyran phenyloxazolidinones” (Pharmacia & Upjohn Company, priority 1998, dated 2000).
≈ marks a conversion by molar mass, not a printed value.

Key:
H. influenzae 30063 = test: MIC by agar dilution against H. influenzae 30063; type: cell-based; conditions: Haemophilus influenzae, in vitro
Description: (§1) The oxazolidinone antibacterial agents of this invention have useful activity against a variety of organisms. The in vitro activity of compounds of this invention can be assessed by standard testing procedures such as the determination of minimum inhibitory concentration (MIC) by agar dilution as described in "Approved Standard. Methods for Dilution Antimicrobial Susceptibility Tests for Bacteria That Grow Aerobically", 3rd. ed., published 1993 by the National Committee for Clinical Laboratory Standards, Villanova, Pa., USA.

human MAO A = biological target: T1, human MAO A (Homo sapiens, UniProt P21397); test: Continuous spectrophotometric assay of inhibitory activity to human MAO-A; type: biochemical; conditions: pH 7.3, 37° C., 80 μM substrate, 1% DMSO, 15 minutes pre-incubation; read-out: Ki, inhibition of human MAO A
T1 construct: Human placental MAO A is solubilized and purified as described; from tissue; host or cells: human placenta (enzyme supplied by Dr. Neal Castagnoli Jr's lab, Virginia Technical University)
T1 sequence (P21397 1-527): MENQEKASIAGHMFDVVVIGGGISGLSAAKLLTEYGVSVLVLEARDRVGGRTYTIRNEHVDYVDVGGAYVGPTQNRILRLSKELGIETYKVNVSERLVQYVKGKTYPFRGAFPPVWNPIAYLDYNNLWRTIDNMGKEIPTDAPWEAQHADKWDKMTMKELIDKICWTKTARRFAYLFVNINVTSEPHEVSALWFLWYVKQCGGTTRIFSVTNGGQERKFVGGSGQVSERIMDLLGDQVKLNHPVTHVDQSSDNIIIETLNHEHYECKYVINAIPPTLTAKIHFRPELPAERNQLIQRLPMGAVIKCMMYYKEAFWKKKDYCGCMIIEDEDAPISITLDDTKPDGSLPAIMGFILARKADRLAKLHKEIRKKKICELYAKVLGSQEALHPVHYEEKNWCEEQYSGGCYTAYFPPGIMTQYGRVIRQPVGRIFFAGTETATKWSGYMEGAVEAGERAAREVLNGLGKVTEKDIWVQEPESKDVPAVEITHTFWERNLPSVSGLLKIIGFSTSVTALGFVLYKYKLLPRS
Description: The continuous spectrophotometric assay for measuring MAO activity is based on a colored oxidation product of the chromogenic substrate, 1-methyl-4-(1-methyl-2-pyrryl)-1,2,3,6-tetrahydropyridine, by MAO enzymes. The product is stable for many days at room temperature. The conversion of the substrate to the oxidation product is followed continuously from the moment of mixing of the MAO enzyme with the substrate and the initial reaction rate curve is directly observed. The bright yellow-green oxidation product has a peak absorption at 421 nm with a broad band that can be measured between 390 nm to 440 nm. Thus, the assay can be performed on the least sophisticated spectrophotometric equipment.
Human placental MAO A is solubilized and purified as described in N. Castagnoli Jr. et al., J. Med Chem. Vol. 39, pp. 4756-4761 (1996) and J. I. Salach et al., J. of Bio. Chem., Vol. 260, p. 13199 (1985). The human placental MAO A is obtained as a concentrated solution (5 nmols per ml). Bovine liver MAO B is purified as described N. Castagnoli Jr. et al., J. Med Chem., Vol. 39, pp. 4756-4761 (1996) and J. I. Salach et al., Methods Enzymol., Vol. 142, pp […] (1987). The bovine liver MAO B is obtained as a concentrated solution (8 nmols per ml). Working stocks of the enzyme solutions are made by 1/50 dilution of initial stocks into 50 mM sodium phosphate and optionally 10% glycerol. The solutions are kept on ice until final dilution into the assay. Alternatively, the frozen MAO enzymes may be diluted 800-3200 fold into the 50 mM sodium phosphate buffer immediately before use. This method is useful when screening a large number of oxazolidinones.
Oxazolidinones are prepared in DMSO at a concentration of 50 mM. Serial dilutions of the 50 mM stock solution are made in DMSO to form additional stock solutions ranging from […] to 0.3125 mM. The stock solutions are then frozen until use. The stocks are diluted 1/100 into the final enzyme assay volume at the time of assay.
Typically, the enzyme, along with an oxazolidinone inhibitor, are preincubated for approximately 15 minutes in the sodium phosphate buffer prior to assay. The reactions are started by addition of the substrate. Initial velocities are generally collected over an interval of one to sixty minutes.
The assay functions well in the spectrophotometer cuvette for evaluating single oxazolidinone's MAO inhibitory activity. The assay has also been successfully adapted to operate in high throughput microtiterplate format (i.e., 96, 384 and 1536 well plate readers). Hundreds of assays can be run simultaneously. Assay volumes are 250 μL and the wells have an effective path length of 0.75 cm. Generally, the final composition of the assay in the microtiterplate comprises […] sodium phosphate (pH=7.3), oxazolidinone having concentration ranging up to 500 μM, 1% DMSO, 80 μM substrate (MAO A) or 200 μM substrate (MAO B), and sufficient enzyme to produce an absorbance change from 0.0005 to 0.050 per minute at 421 nm. The reaction is run at 37° C., and rapid temperature equilibration of the assay solution is achieved by preincubating the plate and stock solutions at about 37° C. The reaction is followed by recording the increase in absorbance at 421 nm. The oxidation product has an extinction coefficient of 25,000 M^-1 cm^-1 at 420. See: N. Castagnoli Jr. et al., J. Med Chem., Vol. 39, pp. 4756-4761 (1996). Initial rates are determined by linear regression of the progress curves over an absorbance change of 0.06-0.12 at 421 nm. This range represents a substrate consumption of approximately 5% in the assay. The percentage inhibition of an oxazolidinone is determined from the following equation
In the above equation, the term "negative control" refers to a complete assay with 1% of DMSO but no MAO enzyme. The term "positive control" refers to a complete assay with 1% of DMSO but no inhibitor. The term "rate (I)" refers to the reaction rate under a complete assay conditions. […]

S. aureus UC 9213 = test: MIC by agar dilution against S. aureus UC 9213; type: cell-based; conditions: Staphylococcus aureus, UC9213, in vitro
Description: as §1

With `O=C(NC[C@H]1CN(c2ccc([C@H]3CC[S@@+]([O-])CC3)c(F)c2)C(=O)O1)C(Cl)Cl` [Example 4, (-)-2,2-Dichloro-N-[[(5S)-3-[3-fluoro-4-(cis-tetrahydro-1-oxido-2H-thiopyran-4-yl)phenyl]-2-oxo-5-oxazolidinyl]methyl]acetamide] the MIC (H. influenzae 30063) was 8 µg/mL (≈ 18.3 µM), the Ki (human MAO A) was 2570 µM and the MIC (S. aureus UC 9213) was 2 µg/mL (≈ 4.57 µM).
Compound `O=C(NC[C@H]1CN(c2ccc([C@H]3CC[S@@+]([O-])CC3)c(F)c2)C(=O)O1)C1CC1` [Example 3, (-)-N-[[(5S)-3-[3-fluoro-4-(cis-tetrahydro-1-oxido-2H-thiopyran-4-yl)phenyl]-2-oxo-5-oxazolidinyl]methyl]cyclopropanecarboxamide] has an MIC (H. influenzae 30063) of 16 µg/mL (≈ 40.6 µM), a Ki (human MAO A) of 734 µM and an MIC (S. aureus UC 9213) of 8 µg/mL (≈ 20.3 µM).
In the case of `O=C(NC[C@H]1CN(c2ccc(C3CCS(=O)(=O)CC3)c(F)c2)C(=O)O1)C(Cl)Cl` [Example 6, (-)-2,2-dichloro-N-[[(5S)-3-[3-fluoro-4-(tetrahydro-1,1-dioxido-2H-thiopyran-4-yl)phenyl]-2-oxo-5-oxazolidinyl]methyl]acetamide], the MIC (H. influenzae 30063) is reported as 2 µg/mL (≈ 4.41 µM), the Ki (human MAO A) is reported as greater than 3000 µM and the MIC (S. aureus UC 9213) is reported as 2 µg/mL (≈ 4.41 µM).
In the case of `O=C(NC[C@H]1CN(c2ccc([C@H]3CC[S@+]([O-])CC3)c(F)c2)C(=O)O1)C(Cl)Cl` [Example 9, (-)-2,2-dichloro-N-[[(5S)-3-[3-fluoro-4-(trans-tetrahydro-1-oxido-2H-thiopyran-4-yl)phenyl]-2-oxo-5-oxazolidinyl]methyl]acetamide], the MIC (H. influenzae 30063) is reported as 2 µg/mL (≈ 4.57 µM), the Ki (human MAO A) is reported as 396 µM and the MIC (S. aureus UC 9213) is reported as 1 µg/mL (≈ 2.29 µM).
`CCC(=O)NC[C@H]1CN(c2ccc([C@H]3CC[S@+]([O-])CC3)c(F)c2)C(=O)O1` [Example 7, (-)-N-[[(5S)-3-[3-fluoro-4-(trans-tetrahydro-1-oxido-2H-thiopyran-4-yl)phenyl]-2-oxo-5-oxazolidinyl]methyl]propanamide] gave an MIC (H. influenzae 30063) of 4 µg/mL (≈ 10.5 µM), a Ki (human MAO A) of 905 µM and an MIC (S. aureus UC 9213) of 4 µg/mL (≈ 10.5 µM).
With `CC(=O)NC[C@H]1CN(c2ccc([C@H]3CC[S@@+]([O-])CC3)c(F)c2)C(=O)O1` [Example 1, (-)-N-[[(5S)-3-[3-fluoro-4-(cis-tetrahydro-1-oxido-2H-thiopyran-4-yl)phenyl]-2-oxo-5-oxazolidinyl]methyl]acetamide] the MIC (H. influenzae 30063) was 8 µg/mL (≈ 21.7 µM), the Ki (human MAO A) was 648 µM and the MIC (S. aureus UC 9213) was 4 µg/mL (≈ 10.9 µM).
`CCC(=O)NC[C@H]1CN(c2ccc([C@H]3CC[S@@+]([O-])CC3)c(F)c2)C(=O)O1` [Example 2, (-)-N-[[(5S)-3-[3-fluoro-4-(cis-tetrahydro-1-oxido-2H-thiopyran-4-yl)phenyl]-2-oxo-5-oxazolidinyl]methyl]propanamide] gave an MIC (H. influenzae 30063) of 16 µg/mL (≈ 41.8 µM), a Ki (human MAO A) greater than 3000 µM and an MIC (S. aureus UC 9213) of 8 µg/mL (≈ 20.9 µM).
`O=C(NC[C@H]1CN(c2ccc([C@H]3CC[S@+]([O-])CC3)c(F)c2)C(=O)O1)C1CC1` [Example 8, (-)-N-[[(5S)-3-[3-fluoro-4-(trans-tetrahydro-1-oxido-2H-thiopyran-4-yl)phenyl]-2-oxo-5-oxazolidinyl]methyl]cyclopropanecarboxamide] gave an MIC (H. influenzae 30063) of 16 µg/mL (≈ 40.6 µM), a Ki (human MAO A) greater than 3000 µM and an MIC (S. aureus UC 9213) of 8 µg/mL (≈ 20.3 µM).
With `CCC(=O)NC[C@H]1CN(c2ccc(C3CCS(=O)(=O)CC3)c(F)c2)C(=O)O1` [Example 5, (-)-N-[[(5S)-3-[3-fluoro-4-(tetrahydro-1,1-dioxido-2H-thiopyran-4-yl)phenyl]-2-oxo-5-oxazolidinyl]methyl]propanamide] the MIC (H. influenzae 30063) was 8 µg/mL (≈ 20.1 µM), the Ki (human MAO A) was 3000 µM and the MIC (S. aureus UC 9213) was 4 µg/mL (≈ 10 µM).
